These results are taken from patent US7183252B2, “Indole peptidomimetics as thrombin receptor antagonists” (Ortho-McNeil Pharmaceutical, Inc., priority 1999, dated 2007).

Read-outs that look alike come from different tables or passages of the source.

In one assay the test system is gel-filtered platelets. Briefly: In vitro inhibition of thrombin-induced gel-filtered platelet aggregation. In kind it is cell-based. Conditions: human gel-filtered platelets, agonist thrombin 50 μL of 1 unit/mL, read-out: Thrmb IC50 (Thrombin-induced aggregation of gel-filtered platelets). The gist of the method: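 Gel-filtered (Sepharose 2B) human platelets from citrated PRP, 2×10^7 per sample, in Tyrode's buffer pH 7.4 with BSA and added calcium, preincubated with test compound. Aggregation induced by thrombin (50 μL of 1 unit/mL) and followed as light transmission over 3 min. Inhibition is taken relative to control-treated platelets.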

The target of assay [1] is T1, thrombin receptor (PAR-1) (Homo sapiens, UniProt P25116).
T1 construct: CHRF membranes (Jones, Biochim. Biophys. Acta 1992, 1136, 272) are thawed from −70° C; endogenous in cells; host or cells: CHRF cell membranes
T1 sequence (P25116 22-425): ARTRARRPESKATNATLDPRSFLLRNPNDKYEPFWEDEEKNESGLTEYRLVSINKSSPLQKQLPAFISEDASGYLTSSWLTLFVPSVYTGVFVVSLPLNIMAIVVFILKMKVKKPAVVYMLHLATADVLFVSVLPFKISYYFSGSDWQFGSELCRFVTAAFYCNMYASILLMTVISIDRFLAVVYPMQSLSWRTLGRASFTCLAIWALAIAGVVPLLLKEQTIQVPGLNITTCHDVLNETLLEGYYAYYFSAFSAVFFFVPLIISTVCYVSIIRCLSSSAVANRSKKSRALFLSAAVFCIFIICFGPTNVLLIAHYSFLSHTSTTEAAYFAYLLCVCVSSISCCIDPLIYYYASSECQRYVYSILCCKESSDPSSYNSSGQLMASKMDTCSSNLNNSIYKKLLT
Briefly: In vitro thrombin receptor binding assay (CHRF membranes). Conditions: tritiated 721-40 radioligand, read-out: Bndg IC50 (Thrombin receptor binding). The gist of the method: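 CHRF cell membranes incubated 30 min with tritiated peptide agonist 721–40 and compound at 3.7 μg/mL final (0.6% DMSO) in HEPES/MgCl2/BSA buffer. Nonspecific binding defined with unlabeled 721–40; bound radioactivity counted after filtration onto PEI-treated filters.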

For the compound `NCC[C@H](NC(=O)[C@H](CC1CCCCC1)NC(=O)Nc1ccc2c(CN3CCCC3)cn(Cc3c(Cl)cccc3Cl)c2c1)C(=O)NCc1ccccc1` [Compound 155], the IC50 (in general, the midpoint of a concentration-inhibition curve) with gel-filtered platelets (Platelet) was determined as 11 µM; in assay [1], 13.5 µM.
Turning to `COCC[C@H](NC(=O)[C@H](Cc1ccc(F)c(F)c1)NC(=O)Nc1ccc2c(CN3CCCC3)cn(Cc3c(Cl)cccc3Cl)c2c1)C(=O)NCCN` [Compound 156], the IC50 in the assay on gel-filtered platelets (Platelet) is 0.6 µM; in assay [1], 0.04 µM.
Consider `C[C@@H](NC(=O)[C@H](CCN)NC(=O)[C@H](Cc1ccc(F)c(F)c1)NC(=O)Nc1ccc2c(CN3CCCC3)cn(Cc3c(Cl)cccc3Cl)c2c1)c1ccccc1` [Compound 157], for which the IC50 in the assay with gel-filtered platelets was determined as 0.66 µM; in assay [1] it was 0.48 µM.
Take `NCC[C@H](NC(=O)[C@H](Cc1ccc(F)c(F)c1)NC(=O)Nc1ccc2c(CN3CCCC3)cn(Cc3c(Cl)cccc3Cl)c2c1)C(=O)NCc1ccc([N+](=O)[O-])cc1` [Compound 158]: the IC50 in the assay with gel-filtered platelets is 0.74 µM; in assay [1], 1.8 µM.
Take `Cc1coc(CNC(=O)[C@H](CCN)NC(=O)[C@H](Cc2ccc(F)c(F)c2)NC(=O)Nc2ccc3c(CN4CCCC4)cn(Cc4c(Cl)cccc4Cl)c3c2)c1` [Compound 159]: the half-inhibitory concentration (IC50) with gel-filtered platelets is 0.43 µM; in assay [1], 0.7 µM.
Regarding `COc1ccc(C[C@H](NC(=O)Nc2ccc3c(c2)c(CN2CCCCC2)cn3Cc2ccc(F)cc2)C(=O)N[C@@H](CCCNC(=N)N)C(=O)NCc2ccccc2)cc1` [Compound 162], the results for the IC50 (in the assay on gel-filtered platelets (Platelet); in assay [1]) were 13 µM and 5.3 µM, respectively.
Consider `COc1ccc(C[C@H](NC(=O)Nc2ccc3c(c2)c(CN2CCSC2)cn3Cc2ccc(F)cc2)C(=O)N[C@@H](CCCNC(=N)N)C(=O)NCc2ccccc2)cc1` [Compound 163], for which the results for the IC50 (in the assay on gel-filtered platelets (Platelet); in assay [1]) were 30 µM and 3 µM, respectively.
As for `NCC[C@H](NC(=O)[C@H](Cc1ccc(F)c(F)c1)NC(=O)Nc1ccc2c(c1)c(CN1CCCC1)cn2Cc1ccc(F)cc1)C(=O)NCc1ccccc1` [Compound 164], the values for the IC50 (in the assay with gel-filtered platelets (Platelet); in assay [1]) were 13.6 µM and 11.8 µM, respectively.
For the compound `NCC[C@H](NC(=O)[C@H](Cc1ccc(F)c(F)c1)NC(=O)Nc1cccc2c1c(CN1CCCC1)cn2Cc1c(Cl)cccc1Cl)C(=O)NCc1ccccc1` [Compound 165], the results for the IC50 (in the assay on gel-filtered platelets (Platelet); in assay [1]) were 4.8 µM and 49.6 µM, respectively.
Consider `NCC[C@H](NC(=O)[C@H](Cc1ccc(F)c(F)c1)NC(=O)Nc1cccc2c1c(CN1CCCC1)cn2Cc1c(Cl)cccc1Cl)C(=O)NCCN1CCCC1` [Compound 166], for which the results for the IC50 (with gel-filtered platelets (Platelet); in assay [1]) were 40.3 µM and 2 µM, respectively.
`NCC[C@H](NC(=O)[C@H](Cc1ccc(F)c(F)c1)NC(=O)Nc1cccc2c(CN3CCCC3)cn(Cc3c(Cl)cccc3Cl)c12)C(=O)NCc1ccccc1` [Compound 167]: the IC50 in the assay with gel-filtered platelets (Platelet) came to 8.5 µM; in assay [1], 67.6 µM.
Take `Cc1ccccc1Cn1cc(CN2CCCC2)c2cccc(NC(=O)N[C@@H](Cc3ccc(F)c(F)c3)C(=O)N[C@@H](CCN)C(=O)NCc3ccccc3)c21` [Compound 168]: the IC50 in the assay with gel-filtered platelets (Platelet) came out at 8.3 µM; in assay [1] it was 64.3 µM.
Turning to `N=C(N)NCCC[C@H](NC(=O)[C@H](Cc1ccc(F)c(F)c1)NC(=O)Nc1ccc2c(CN3CCCC3)c(-c3ccccc3)n(Cc3ccc(F)cc3)c2c1)C(=O)NCc1ccc(F)cc1` [Compound 171, L-Argininamide, 3,4-difluoro-N-[[[1-[(4-fluorophenyl)methyl]-2-phenyl-3-(1-pyrrolidinylmethyl)-1H-indol-6-yl]amino]carbonyl]-L-phenylalanyl-N-[(4-fluorophenyl)methyl]-], the figures for the IC50 (in the assay on gel-filtered platelets (Platelet); in assay [1]) were 1 µM and 0.1 µM, respectively.
On to `Cc1ccccc1Cn1c(Cl)c(CN2CCCC2)c2ccc(NC(=O)N[C@@H](Cc3ccc(F)c(F)c3)C(=O)N[C@@H](CCCNC(=N)N)C(=O)NCc3ccccc3)cc21` [Compound 172], for which the results for the IC50 (with gel-filtered platelets (Platelet); in assay [1]) were greater than 10 µM and 6.8 µM, respectively.
Consider `Cc1ccccc1Cn1c(Cl)c(CN2CCCC2)c2ccc(NC(=O)N[C@@H](Cc3cccc(F)c3)C(=O)N[C@@H](CCCN=C(N)N)C(=O)NCc3ccc(F)cc3)cc21` [Compound 173], for which the values for the IC50 (with gel-filtered platelets (Platelet); in assay [1]) were 2 µM and 0.76 µM, respectively.
In the case of `NCCNC(=O)[C@H](Cc1ccncc1)NC(=O)[C@H](Cc1ccc(F)c(F)c1)NC(=O)c1ccc2c(CN3CCCC3)cn(Cc3c(Cl)cccc3Cl)c2c1` [Compound 175, L-Alaninamide, N-[[1-[(2,6-dichlorophenyl)methyl]-3-(1-pyrrolidinylmethyl)-1H-indol-6-yl]carbonyl]-3,4-difluoro-L-phenylalanyl-N-(2-aminoethyl)-3-(4-pyridinyl)-], the IC50 in the assay with gel-filtered platelets (Platelet) came out at 1.6 µM; in assay [1], 0.09 µM.
On to `NCCNC(=O)[C@@H](Cc1ccncc1)NC(=O)[C@@H](Cc1ccc(F)c(F)c1)NC(=O)c1ccc2c(CN3CCCC3)cn(Cc3c(Cl)cccc3Cl)c2c1` [Compound 176], for which the IC50 in the assay with gel-filtered platelets worked out at 45.7 µM; in assay [1] it was 43.2 µM.
On to `NCCNC(=O)[C@H](Cc1cccs1)NC(=O)[C@H](Cc1ccc(Cl)cc1)NC(=O)c1ccc2c(CN3CCCC3)cn(Cc3c(Cl)cccc3Cl)c2c1` [Compound 177], for which the IC50 with gel-filtered platelets (Platelet) was 4.4 µM; in assay [1], 0.62 µM.
Take `NCCNC(=O)[C@@H](Cc1cccs1)NC(=O)[C@@H](Cc1ccc(Cl)cc1)NC(=O)c1ccc2c(CN3CCCC3)cn(Cc3c(Cl)cccc3Cl)c2c1` [Compound 178]: the IC50 amounted to 40.7 µM in the assay on gel-filtered platelets (Platelet) and 9.9 µM in assay [1].
